# Legend:
# [1] = tested on: subjects with moderately to severely active SLE; assay: Phase 2 Study M19-130: safety and efficacy of upadacitinib vs placebo, 48-week treatment period; assay type: in vivo, human
# Source text: This was a Phase 2 Study (M19-130) to Investigate the Safety and Efficacy of Upadacitinib Given in Subjects with Moderately to Severely Active Systemic Lupus Erythematosus.
# Subjects must have had active SLE by SLEDAI-2K ≥6 as reported and independently adjudicated (clinical score ≥4, excluding lupus headache and/or organic brain syndrome) at Screening and Baseline. If 4 points of the required entry points were for arthritis, there must also have been a minimum of 3 tender and 3 swollen joints.
# The primary efficacy endpoint was achievement of SLE Responder Index (SRI)-4 and steroid dose ≤10 mg prednisone equivalent once a day (QD) at Week 24. SLE Responder Index (SRI)-4 is defined as ≥4-point reduction in Systemic Lupus Erythematosus Disease Activity Index 2000 (SLEDAI-2K) score without worsening of the overall condition (no worsening in Physician's Global Assessment [PhGA], <0.3 point increase) or the development of significant disease activity in new organ systems (no new British Isles Lupus Assessment Group ([BILAG]) A or >1 new BILAG B).
# The following secondary efficacy endpoints were evaluated: • 1. Achievement of SRI-4 at Week 24 • 2. Achievement of BILAG-Based Combined Lupus Assessment (BICLA) response at Week 24 • 3. Achievement of Lupus Low Disease Activity State (LLDAS) at Week 24 • 4. Steroid burden, assessed as change from Baseline at Week 24 • 5. Number of mild, moderate, or severe flares per patient-year (respectively and overall) by Safety of Estrogens in Lupus Erythematosus National Assessment (SELENA) SLEDAI Flare Index (SFI), assessed by number and types of flare per subject through Week 24
# The following additional efficacy endpoints were evaluated at all visits unless otherwise noted: • 1. Achievement of SRI-4 • 2. Achievement of SRI-5, -6, -7, -8 and steroid dose ≤10 mg prednisone equivalent QD at Weeks 24 and 48 • 3. Achievement of SRI-5, -6, -7, -8 • 4. Achievement of BICLA response • 5. Achievement of LLDAS • 6. Achievement of ≥4-point decrease in SLEDAI-2K from Baseline • 7. Steroid burden, assessed as change from Baseline • 8. Number of mild, moderate, or severe flares per patient-year (respectively and overall) by SELENA SFI, assessed by number and types of flare per subject through Week 24 and Week 48 • 9. Time to first flare by SELENA SFI after first study drug administration up to Week 24 and Week 48 • 10. Achievement of 50% reduction of tender or swollen lupus joints defined as ≥50% decrease in either tender or swollen joints (of those starting with total ≥6 affected joints) • 11. Achievement of 50% reduction in Cutaneous Lupus Erythematosus Disease Area and Severity Index (CLASI) activity score (of those starting with CLASI ≥10) • 12. Change in SLEDAI-2K from Baseline • 13. Change in BILAG from Baseline • 14. Change in PhGA from Baseline • 15. Change in Patient Global Assessment (PtGA) from Baseline • 16. Change from Baseline in Functional Assessment of Chronic Illness Therapy (FACIT)—Fatigue at Weeks 2, 12, 24, and 48 • 17. Change from Baseline in 36-Item Short Form Health Survey (SF-36) at Weeks 2, 12, 24, and 48 • 18. Change from Baseline Lupus Quality of Life questionnaire (LupusQoL) at Weeks 2, 12, 24, and 48 • 19. Change from Baseline Pain Numerical Rating Scale (NRS) at Weeks 2, 12, 24, and 48
# The study was designed to investigate the safety and efficacy of upadacitinib in subjects with moderately to severely active SLE despite standard of care therapy. The study duration included a 42-day maximum screening period, a 48-week randomized, placebo-controlled, double-blind, parallel-group treatment period, and a 30-day follow-up phone call. The Week 24 Primary Analysis was performed when all subjects completed the Week 24 visit or discontinued the study. Sites and subjects remained blinded throughout the study. The study team remained blinded until the Week 24 Primary Analysis. […]
# [2] = Upadacitinib pharmacokinetics in Study M19-130 (model-estimated steady-state exposure); assay type: in vivo, human; details: 30 mg QD; subjects with SLE; plasma
# Source text: Upadacitinib plasma concentrations were summarized at each sampling time point using descriptive statistics. A mixed-effects modeling approach may have been used to estimate the population central value and the empirical Bayesian estimates of the individual values for upadacitinib oral clearance (CL/F) and volume of distribution (Vss/F). Additional parameters and pharmacokinetic (PK)/pharmacodynamic relationships may have been estimated if useful in the interpretation of the data.
# The model-estimated median ([…]) steady-state (SS) Cavg in subjects with SLE was 28.4 (19.1-46.6) ng/mL for upadacitinib 30 mg QD.
# [3] = 30 mg QD oral, N = 62, Week 24 interim analysis (Example 1)
# [4] = 30 mg QD oral, N = 62, Week 24 interim analysis (Example 1), listed as UPA
# [5] = 30 mg QD oral, N = 62, final database (Example 2)
# [6] = 30 mg QD oral, N = 62, full analysis set, Week 24 interim analysis (Example 1)
# [7] = 30 mg QD oral, final database (Example 2)
# [8] = 30 mg QD vs PBO (N = 75), stratum-adjusted, final database (Example 2)
# [9] = 30 mg QD, N = 62, subject disposition, Week 24 interim analysis
structure (smiles),measurement,setting,value
"CC[C@@H]1CN(C(=O)NCC(F)(F)F)C[C@@H]1c1cnc2cnc3[nH]ccc3n12 [Upadacitinib, (3S,4R)-3-ethyl-4-(3H-imidazo[1,2-a]pyrrolo[2,3-e]pyrazin-8-yl)-N-(2,2,2-trifluoroethyl)pyrrolidine-1-carboxamide]",Prednisone Equivalent Steroid Dose; Week 48; LS Mean Change (SE),"[1]; 30 mg QD oral, N = 38, final database (Example 2)",−1.20 (0.524)
same,Prednisone Equivalent Steroid Dose at Week 24; LS Mean Change (SE),"[1]; 30 mg QD oral, N = 48, change from Baseline, Week 24 interim analysis (Example 1)",−0.64 (0.486)
same,Prednisone Equivalent Steroid Dose; Week 24; LS Mean Change (SE),"[1]; 30 mg QD oral, N = 48, final database (Example 2)",−0.62 (0.496)
same,BICLA at Week 24; %,[1]; [3],58.1%
same,BICLA at Week 24; n,[1]; [3],36 n
same,Flares per SELENA SLEDAI Flare Index through Week 24; Any flares,[1]; [3],1.73 Events/PY
same,Flares per SELENA SLEDAI Flare Index through Week 24; Mild/Moderate,[1]; [3],1.66 Events/PY
same,Flares per SELENA SLEDAI Flare Index through Week 24; Severe,[1]; [3],0.07 Events/PY
same,LLDAS at Week 24; %,[1]; [3],(43.5) %
same,LLDAS at Week 24; n,[1]; [3],27 n
same,SRI-4 at Week 24; %,[1]; [3],53.6%
same,SRI-4 at Week 24; n,[1]; [3],33 n
same,BICLA at Week 24; %,[1]; [4],(58.1) %
same,SRI-4 at Week 24; %,[1]; [4],(53.2) %
same,BICLA; Week 24; %,[1]; [5],(58.1) %
same,BICLA; Week 24; n,[1]; [5],36 n
same,BICLA; Week 48; %,[1]; [5],(53.2) %
same,BICLA; Week 48; n,[1]; [5],33 n
same,Flares per SELENA SLEDAI Flare Index Through Week 48; Any flares,[1]; [5],2.04 Events/PY
same,Flares per SELENA SLEDAI Flare Index Through Week 48; Mild/Moderate,[1]; [5],1.88 Events/PY
same,Flares per SELENA SLEDAI Flare Index Through Week 48; Severe,[1]; [5],0.16 Events/PY
same,Flares per SELENA SLEDAI Flare Index through Week 24; Any flares,[1]; [5],1.87 Events/PY
same,Flares per SELENA SLEDAI Flare Index through Week 24; Mild/Moderate,[1]; [5],1.76 Events/PY
same,Flares per SELENA SLEDAI Flare Index through Week 24; Severe,[1]; [5],0.10 Events/PY
same,LLDAS; Week 24; %,[1]; [5],(45.2) %
same,LLDAS; Week 24; n,[1]; [5],28 n
same,LLDAS; Week 48; %,[1]; [5],(50.0) %
same,LLDAS; Week 48; n,[1]; [5],31 n
same,SRI-4; Week 24; %,[1]; [5],(56.5) %
same,SRI-4; Week 24; n,[1]; [5],35 n
same,SRI-4; Week 48; %,[1]; [5],45.2%
same,SRI-4; Week 48; n,[1]; [5],28 n
same,SRI-4 and Prednisone Equivalent Steroid Dose ≤10 mg; Week 24; %,[1]; [5],(54.8) %
same,SRI-4 and Prednisone Equivalent Steroid Dose ≤10 mg; Week 48; %,[1]; [5],(43.5) %
same,SRI-4 and Prednisone Equivalent Steroid Dose ≤10 mg; Week 48; n,[1]; [5],27 n
same,SRI-4; Week 48; %,"[1]; 30 mg QD oral, N = 62, final database (Example 2), listed as UPA",(45.2) %
same,SRI-4 and Prednisone Equivalent Steroid Dose ≤10 mg at Week 24; %,[1]; [6],51.6%
same,SRI-4 and Prednisone Equivalent Steroid Dose ≤10 mg at Week 24; n,[1]; [6],32 n
same,SRI-4 and Prednisone Equivalent Steroid Dose ≤10 mg at Week 24; %,"[1]; 30 mg QD oral, N = 62, full analysis set, Week 24 interim analysis (Example 1), listed as UPA",(51.6) %
same,SRI-4 and Prednisone Equivalent Steroid Dose ≤10 mg; Week 24; n,"[1]; 30 mg QD oral, N = 62, full analysis set, final database (Example 2)",34 n
same,50% Reduction of Tender or Swollen Lupus Joints among Subjects with Total >=6 Affected Joints; Week 24; %,[1]; [7],(67.8) %
same,50% Reduction of Tender or Swollen Lupus Joints among Subjects with Total >=6 Affected Joints; Week 24; n,[1]; [7],40/59
same,50% Reduction of Tender or Swollen Lupus Joints among Subjects with Total >=6 Affected Joints; Week 48; %,[1]; [7],(57.6) %
same,50% Reduction of Tender or Swollen Lupus Joints among Subjects with Total >=6 Affected Joints; Week 48; n,[1]; [7],34/59
same,BICLA; Week 48; Adj. Diff (−PBO) [95% CI],[1]; [8],30.8
same,SRI-4; Week 48; Adj. Diff (−PBO) [95% CI],[1]; [8],30.4
same,SRI-4 and Steroid Dose ≤10 mg prednisone equivalent QD; stratum-adjusted treatment difference,"[1]; 30 mg QD vs placebo, Week 24, Example 1",14.0%
same,Discontinued from the Study Drug (All Reasons): Adverse event; %,[1]; [9],9.7%
same,Discontinued from the Study Drug (All Reasons): Adverse event; n,[1]; [9],6 n
same,Discontinued from the Study Drug (Primary Reasons): Adverse event; %,[1]; [9],8.1%
same,Discontinued from the Study Drug (Primary Reasons): Adverse event; n,[1]; [9],5 n
same,Withdrawal from the Study (All Reasons): Adverse event; %,[1]; [9],6.5%
same,Withdrawal from the Study (All Reasons): Adverse event; n,[1]; [9],4 n
same,Withdrawal from the Study (Primary Reasons): Adverse event; %,[1]; [9],4.8%
same,Withdrawal from the Study (Primary Reasons): Adverse event; n,[1]; [9],3 n
same,response rate in BICLA after Week 24,"[1]; 30 mg, Week 24 to Week 48",generally maintained
same,response rate in SRI-4 after Week 24,"[1]; 30 mg, Week 24 to Week 48",generally maintained
same,flare compared to placebo,"[1]; 30 mg, over 48 weeks",reductions in flare
same,time-to-first flare compared to placebo,"[1]; 30 mg, over 48 weeks",delays in time-to-first flare
same,LLDAS at Week 24 compared with placebo,"[1]; 30 mg, p<0.001, Example 1",greater efficacy than placebo
same,flare rate through Week 24 compared with placebo,"[1]; 30 mg, p=0.075, Example 1",lower flare rate
same,response rate for achievement of BICLA at Week 48,"[1]; 30 mg, text of Example 2",53.2%
same,model-estimated median (prediction interval) steady-state (SS) Cavg,[2],28.4 (19.1-46.6) ng/mL
